Molecular target: human PDE10A (Homo sapiens (Human), UniProt Q9Y233)
Test: human PDE10A full length Scintillation Proximity Assay (SPA)
Assay type: biochemical
Conditions: 50 nM cGMP and 50 nM [3H]-cGMP, 20 minutes at room temperature, read-out: PDE10A inhibition IC50
Protocol: The following test was carried out in order to determine the activity of the compounds of the present invention. PDE10 activity of the compounds of the present invention was determined using a Scintillation Proximity Assay (SPA)-based method similar to the one previously described (Fawcett, L. et al., Proc Natl Acad Sci USA (2000) 97(7):3702-3707).
The human PDE10A full length assay was performed in 96-well micro titer plates. The reaction mixture of 50 μl contained 20 mM HEPES pH=7.5/10 mM MgCl2/0.05 mg/ml BSA (Sigma cat. # A-7906), 50 nM cGMP (Sigma, cat. # G6129) and 50 nM [^3H]-cGMP (GE Healthcare, cat. # TRK392 S.A. 13.2Ci/mmol), 3.75 ng/well PDE10A enzyme (Enzo Life Science, Lausen, Switzerland cat # SE-534) with or without a specific test compound. A range of concentrations of the potential inhibitor was used to generate data for calculating the concentration of inhibitor resulting in 50% of the effect (e.g. IC50, the concentration of the competitor inhibiting PDE10A activity by 50%). Non-specific activity was tested without the enzyme. The reaction was initiated by the addition of the substrate solution (cGMP and [^3H]-cGMP) and allowed to progress for 20 minutes at room temperature. The reaction was terminated by adding 25 μA of YSi-SPA scintillation beads (GE Healthcare, cat. # RPNQ0150) in 18 mM zinc sulphate solution (stop reagent). After 1 h under shaking, the plate was centrifuged one minute at 170 g to allow beads to settle. Afterwards, radioactive counts were measured on a Perkin Elmer TopCount Scintillation plate reader.

Sequence of human PDE10A (Q9Y233 other isoform, or with tags, fused parts or gaps): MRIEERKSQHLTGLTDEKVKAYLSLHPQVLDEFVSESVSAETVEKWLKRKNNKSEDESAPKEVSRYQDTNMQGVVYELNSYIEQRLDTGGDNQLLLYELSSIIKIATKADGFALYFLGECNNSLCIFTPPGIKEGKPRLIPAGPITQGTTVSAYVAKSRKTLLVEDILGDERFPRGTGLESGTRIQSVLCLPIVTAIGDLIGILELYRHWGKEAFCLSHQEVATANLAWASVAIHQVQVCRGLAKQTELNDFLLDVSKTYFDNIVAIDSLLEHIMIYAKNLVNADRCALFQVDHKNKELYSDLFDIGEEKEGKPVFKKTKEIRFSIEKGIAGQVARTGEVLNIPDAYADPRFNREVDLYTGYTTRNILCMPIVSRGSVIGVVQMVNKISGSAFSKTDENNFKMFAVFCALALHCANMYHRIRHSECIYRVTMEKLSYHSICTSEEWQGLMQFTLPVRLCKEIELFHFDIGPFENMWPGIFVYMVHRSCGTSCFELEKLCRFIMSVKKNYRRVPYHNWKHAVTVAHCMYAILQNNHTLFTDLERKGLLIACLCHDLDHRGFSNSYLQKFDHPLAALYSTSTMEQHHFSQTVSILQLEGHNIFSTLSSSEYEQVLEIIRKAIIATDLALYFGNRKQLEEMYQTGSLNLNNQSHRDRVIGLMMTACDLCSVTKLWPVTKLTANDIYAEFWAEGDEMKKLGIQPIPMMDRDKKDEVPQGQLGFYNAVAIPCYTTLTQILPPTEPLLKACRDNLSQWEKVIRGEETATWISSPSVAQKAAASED

Row | IC50 | Structure (SMILES)
1 | 5 nM | O=C(Nc1cc(-c2ccccn2)nn1CCc1ccccc1)c1nc(C2CC2)ccc1Nc1cncnc1 [Example 17, 6-Cyclopropyl-3-(pyrimidin-5-ylamino)-pyridine-2-carboxylic acid (2-phenethyl-5-pyridin-2-yl-2H-pyrazol-3-yl)-amide]
2 | 13 nM | CC(C)(C)n1nc(-c2ccccn2)cc1NC(=O)c1nc(C2CC2)ccc1Nc1cncnc1 [Example 18, 6-Cyclopropyl-3-(pyrimidin-5-ylamino)-pyridine-2-carboxylic acid (2-tert-butyl-5-pyridin-2-yl-2H-pyrazol-3-yl)-amide]
3 | 2 nM | CCc1ccc(Nc2cncnc2)c(C(=O)Nc2cc(-c3ccccn3)nn2C)n1 [Example 19, 6-Ethyl-3-(pyrimidin-5-ylamino)-pyridine-2-carboxylic acid (2-methyl-5-pyridin-2-yl-2H-pyrazol-3-yl)-amide]
4 | 1 nM | O=C(Nc1cc(-c2ccccn2)nn1C1CCOCC1)c1nc(C2CC2)ccc1Nc1cncnc1 [Example 20, 6-Cyclopropyl-3-(pyrimidin-5-ylamino)-pyridine-2-carboxylic acid [5-pyridin-2-yl-2-(tetrahydro-pyran-4-yl)-2H-pyrazol-3-yl]-amide]
5 | 4 nM | Cn1nc(-c2ccccn2)cc1NC(=O)c1nc(C2CC2)cnc1Nc1cncnc1 [Example 21, 6-Cyclopropyl-3-(pyrimidin-5-ylamino)-pyrazine-2-carboxylic acid (2-methyl-5-pyridin-2-yl-2H-pyrazol-3-yl)-amide]
6 | 2 nM | O=C(Nc1cc(-c2ccccn2)nn1CC(F)(F)F)c1nc(C2CC2)ccc1Nc1cncnc1 [Example 22, 6-Cyclopropyl-3-(pyrimidin-5-ylamino)-pyridine-2-carboxylic acid [5-pyridin-2-yl-2-(2,2,2-trifluoro-ethyl)-2H-pyrazol-3-yl]-amide]
7 | 2 nM | CCCn1nc(-c2ccccn2)cc1NC(=O)c1nc(C2CC2)ccc1Nc1cncnc1 [Example 23, 6-Cyclopropyl-3-(pyrimidin-5-ylamino)-pyridine-2-carboxylic acid (2-propyl-5-pyridin-2-yl-2H-pyrazol-3-yl)-amide]
8 | 1 nM | O=C(Nc1cc(-c2cccc(Cl)n2)nn1CCO)c1nc(C2CC2)ccc1Nc1cncnc1 [Example 24, 6-Cyclopropyl-3-(pyrimidin-5-ylamino)-pyridine-2-carboxylic acid [5-(6-chloro-pyridin-2-yl)-2-(2-hydroxy-ethyl)-2H-pyrazol-3-yl]-amide]
9 | < 1 nM | O=C(Nc1cc(-c2ccc3ccccc3n2)nn1CCO)c1nc(C2CC2)ccc1Nc1cncnc1 [Example 25, 6-Cyclopropyl-3-(pyrimidin-5-ylamino)-pyridine-2-carboxylic acid [2-(2-hydroxy-ethyl)-5-quinolin-2-yl-2H-pyrazol-3-yl]-amide]
10 | 2 nM | O=C(Nc1cc(-c2ccc(Cl)cn2)nn1CCO)c1nc(C2CC2)ccc1Nc1cncnc1 [Example 26, 6-Cyclopropyl-3-(pyrimidin-5-ylamino)-pyridine-2-carboxylic acid [5-(5-chloro-pyridin-2-yl)-2-(2-hydroxy-ethyl)-2H-pyrazol-3-yl]-amide]
11 | 3 nM | CC(C)n1nc(-c2ccccn2)cc1NC(=O)c1nc(C2CC2)ccc1Nc1cncnc1 [Example 27, 6-Cyclopropyl-3-(pyrimidin-5-ylamino)-pyridine-2-carboxylic acid (2-isopropyl-5-pyridin-2-yl-2H-pyrazol-3-yl)-amide]
12 | 1 nM | CC(C)Cn1nc(-c2ccccn2)cc1NC(=O)c1nc(C2CC2)ccc1Nc1cncnc1 [Example 28, 6-Cyclopropyl-3-(pyrimidin-5-ylamino)-pyridine-2-carboxylic acid (2-isobutyl-5-pyridin-2-yl-2H-pyrazol-3-yl)-amide]
13 | 2 nM | O=C(Nc1cc(-c2ccccn2)nn1Cc1ccccc1)c1nc(C2CC2)ccc1Nc1cncnc1 [Example 29, 6-Cyclopropyl-3-(pyrimidin-5-ylamino)-pyridine-2-carboxylic acid (2-benzyl-5-pyridin-2-yl-2H-pyrazol-3-yl)-amide]
